Columns and labels:
Alternaria alternata = assay: Cell test on Alternaria alternata; format: cell-based; conditions: under similar conditions (2 ppm, OD at 620 nm after 5 days)
Description: The growth of Alternaria alternata is performed on PDA medium at 20° C. under black light during 14 days. The PDA medium is prepared by mixing 39 grams of PDA (Merck) in 1 liter of demineralized water.
The medium is sterilized by autoclave 15 minutes at 121° C. After 14 days of growth, the spores of Alternaria alternata are recovered in sterilized water and the concentration of spores adjusted at 10^6 spores per ml.
The compounds is solubilized in DMSO and added to sterile liquid glucose/mycopeptone medium (14.6 g/l of D-glucose, 7.1 g/l of mycological peptone (Oxoid) and 1.4 g/l of yeast extract (Merck)) at a concentration of 2 ppm. The medium is inoculated with the spore suspension at a concentration of 10^5 spores per ml.
The efficacy of the compounds is assessed by OD measurement at 620 nm after 5 days at 20° C. in comparison with a control.

Pyrenophora teres = assay: In vivo test on Pyrenophora teres (barley net blotch); conditions: barley plants, preventive spray, dose of 330 ppm, grading 12 days after contamination
Description: The active ingredients tested are prepared by homogenization in a mixture of acetone/tween/DMSO, then diluted with water to obtain the desired active material concentration.
Barley plants (Express variety), sown on a 50/50 peat soil-pozzolana substrate in starter cups and grown at 12° C., are treated at the 1-leaf stage (10 cm tall) by spraying with the active ingredient prepared as described above. Plants, used as controls, are treated with the mixture of acetone/tween/DMSO/water not containing the active material.
After 24 hours, the plants are contaminated by spraying them with an aqueous suspension of Pyrenophora teres spores (12,000 spores per ml). The spores are collected from a 12-day-old culture. The contaminated barley plants are incubated for 24 hours at about 20° C. and at 100% relative humidity, and then for 12 days at 80% relative humidity.
Grading is carried out 12 days after the contamination, in comparison with the control plants.

For `O=C(NCCc1ccccn1)c1nccc(-n2ccnc2)c1O` [3-hydroxy-4-(1H-imidazol-1-yl)-N-(2-pyridin-2-ylethyl)pyridine-2-carboxamide], the activity (Alternaria alternata) was “did not show any activity”.

In the case of `O=C(NOCc1ncc(C(F)(F)F)cc1Cl)c1c(Cl)cccc1Cl` [2,6-dichloro-N-{[3-chloro-5-(trifluoromethyl)pyridin-2-yl]methoxy}benzamide], the activity (Alternaria alternata) is reported as “did not show any activity”.

With `Cc1ccsc1C(=O)NOCc1ncc(C(F)(F)F)cc1Cl` [Compound C-1, N-{[3-chloro-5-(trifluoromethyl)pyridin-2-yl]methoxy}-3-methylthiophene-2-carboxamide] the protection (Pyrenophora teres) was “at least 70%”.

`O=C(NOCc1ncc(C(F)(F)F)cc1Cl)c1c(F)cccc1F` [N-{[3-chloro-5-(trifluoromethyl)pyridin-2-yl]methoxy}-2,6-difluorobenzamide] was tested, and the activity (Alternaria alternata) was “did not show any activity”.

From patent US20090209589A1, “N-[(PYRIDIN-2-YL) METHOXY] HETROCYCLYL CARBOXAMIDE DERIVATIVES AND RELATED COMPOUNDS AS FUNGICIDES” (Bayer Cropscience SA, priority 2006, published 2009)
